Target: T1, SIRT1 (Homo sapiens, UniProt Q96EB6)
T1 sequence (Q96EB6 1-747): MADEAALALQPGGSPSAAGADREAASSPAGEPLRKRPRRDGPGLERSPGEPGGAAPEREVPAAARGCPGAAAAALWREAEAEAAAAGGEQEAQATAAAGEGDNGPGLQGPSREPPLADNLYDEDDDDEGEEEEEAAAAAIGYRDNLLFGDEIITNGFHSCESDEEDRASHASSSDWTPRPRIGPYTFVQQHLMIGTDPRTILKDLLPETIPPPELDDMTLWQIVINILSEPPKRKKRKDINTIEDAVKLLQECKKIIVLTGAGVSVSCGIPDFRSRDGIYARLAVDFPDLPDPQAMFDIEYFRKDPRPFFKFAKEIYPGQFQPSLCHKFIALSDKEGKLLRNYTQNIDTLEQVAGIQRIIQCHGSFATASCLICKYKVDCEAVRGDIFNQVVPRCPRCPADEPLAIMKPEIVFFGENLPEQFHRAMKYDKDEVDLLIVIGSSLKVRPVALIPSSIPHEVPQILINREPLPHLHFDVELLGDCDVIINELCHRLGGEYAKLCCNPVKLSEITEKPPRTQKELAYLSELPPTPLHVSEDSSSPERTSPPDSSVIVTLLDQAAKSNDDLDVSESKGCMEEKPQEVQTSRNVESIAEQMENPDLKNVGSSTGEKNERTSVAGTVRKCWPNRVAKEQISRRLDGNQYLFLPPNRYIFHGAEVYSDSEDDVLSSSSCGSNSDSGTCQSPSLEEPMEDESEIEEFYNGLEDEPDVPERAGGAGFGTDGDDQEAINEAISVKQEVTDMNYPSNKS
Test: Trp mass spectrometry assay (SIRT1 activation)
Format: biochemical
Conditions: Trp mass spectrometry assay; for Tryp AVG EC1.5 (μM): EC1.5 = concentration of test compound that results in 150% activation of SIRT1; for Emax: percent maximum fold activation of SIRT1, read-out: Tryp % Fold Act
Summary of the method: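 Activation is expressed as EC1.5, the concentration raising activity 50% above DMSO control, and as maximum percent of control. Mass-spec readout was OAADPR or deacetylated Trp peptide after a formic-acid-quenched 25-min, 25 °C reaction: 10 nM bacterially expressed His-SIRT1, 0.5 μM acetyl-p53-derived peptide, 120 μM NAD+, pH 7.5 HEPES with […].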

Row | SMILES | Tryp AVG EC1.5 (μM) | Emax [%]
1 | O=C(Nc1ccncc1F)N1c2nc(C3CCCC(C(F)(F)F)C3)ccc2N2CC[C@H]1C2 (stereo partly shown) [Example 148] | B (EC1.5 1-25 μM) | ≥ 150
2 | Cc1nc(NC(=O)N2c3nc(C4CCCC(C(F)(F)F)C4)ccc3N3CC[C@H]2C3)sc1C (stereo partly shown) [Example 149] | B (EC1.5 1-25 μM) | ≥ 150
3 | O=C(Nc1ccncc1F)N1c2nc(-c3cccc(N4CCCC4)c3)ccc2N2CC[C@H]1C2 [Example 150] | A (EC1.5<1 μM) | ≥ 150
4 | O=C(Nc1ccncc1F)N1c2nc(-c3ccnc(C(F)(F)F)c3)ccc2N2CC[C@H]1C2 [Example 151] | A (EC1.5<1 μM) | ≥ 150
5 | O=C(Nc1ccncc1F)N1c2nc(-c3ccccc3C(F)(F)F)ccc2N2CC[C@H]1C2 [Example 152] | C (EC1.5>25 μM) | ≥ 150
6 | O=C(Nc1ccncc1F)N1c2nc(-c3cccc(OC(F)(F)F)c3)ccc2N2CC[C@H]1C2 [Example 153] | A (EC1.5<1 μM) | ≥ 150
7 | O=C(Nc1ccnc(F)c1)N1c2nc(C3CCCC(C(F)(F)F)C3)ccc2N2CC[C@H]1C2 (stereo partly shown) [Example 154] | B (EC1.5 1-25 μM) | ≥ 150
8 | O=C(Nc1ccccn1)N1c2nc(-c3cccc(OC[C@@H](O)CO)c3)ccc2N2CC[C@H]1C2 [Example 155] | B (EC1.5 1-25 μM) | ≥ 150
9 | COc1cc(NC(=O)N2c3nc(-c4cccc(OC[C@@H](O)CO)c4)ccc3N3CC[C@H]2C3)ncn1 [Example 156] | A (EC1.5<1 μM) | ≥ 150
10 | O=C(Nc1ccncc1F)N1c2nc(-c3cccc(OC[C@@H](O)CO)c3)ccc2N2CC[C@H]1C2 [Example 157] | B (EC1.5 1-25 μM) | ≥ 150
11 | O=C(Nc1ccccn1)N1c2nc(-c3cccc(C(F)(F)F)c3)ccc2N2CCC1CC2 [Example 158] | B (EC1.5 1-25 μM) | ≥ 150
12 | COc1cc(-c2cccc(C(F)(F)F)c2)nc2c1N1CC[C@@H](C1)N2C(=O)Nc1ccccn1 [Example 159] | A (EC1.5<1 μM) | ≥ 150
13 | COc1cc(-c2cccc(C(F)(F)F)c2)nc2c1N1CC[C@@H](C1)N2C(=O)Nc1ccncc1 [Example 160] | A (EC1.5<1 μM) | ≥ 150
14 | COc1cc(-c2cccc(C(F)(F)F)c2)nc2c1N1CC[C@@H](C1)N2C(=O)Nc1nc(C)c(C)s1 [Example 161] | A (EC1.5<1 μM) | ≥ 150
15 | O=C(Nc1cccc(-c2cnco2)c1)N1c2nc(-c3cccc(OC(F)(F)F)c3)ccc2N2CC[C@H]1C2 [Example 162] | A (EC1.5<1 μM) | ≥ 150
16 | O=C(Nc1cccnc1)N1c2nc(-c3cccc(OC(F)(F)F)c3)ccc2N2CC[C@H]1C2 [Example 163] | A (EC1.5<1 μM) | ≥ 150
17 | O=C(Nc1cnccn1)N1c2nc(-c3cccc(OC(F)(F)F)c3)ccc2N2CC[C@H]1C2 [Example 164] | A (EC1.5<1 μM) | ≥ 150
18 | Cc1nc(NC(=O)N2c3nc(-c4cccc(OC(F)(F)F)c4)ccc3N3CC[C@H]2C3)sc1C [Example 165] | A (EC1.5<1 μM) | ≥ 150
19 | O=C(Nc1ccncn1)N1c2nc(-c3cccc(OC(F)(F)F)c3)ccc2N2CC[C@H]1C2 [Example 166] | A (EC1.5<1 μM) | ≥ 150
20 | Cn1cc(NC(=O)N2c3nc(-c4cccc(OC(F)(F)F)c4)ccc3N3CC[C@H]2C3)cn1 [Example 167] | B (EC1.5 1-25 μM) | ≥ 150
21 | COc1cc(NC(=O)N2c3nc(-c4cccc(C(F)(F)F)c4)ccc3N3CCC2CC3)ncn1 [Example 168] | A (EC1.5<1 μM) | ≥ 150

Row | SMILES | Tryp AVG EC1.5 (μM) | Emax [%]
22 | COc1nccc(NC(=O)N2c3nc(-c4cccc(C(F)(F)F)c4)ccc3N3CCC2CC3)n1 [Example 169] | B (EC1.5 1-25 μM) | ≥ 150
23 | COc1cc(NC(=O)N2c3nc(-c4cccc(C(F)(F)F)c4)ccc3N3CCC2CC3)nc(OC)n1 [Example 170] | A (EC1.5<1 μM) | ≥ 150
24 | O=C(Nc1cccnn1)N1c2nc(-c3cccc(C(F)(F)F)c3)ccc2N2CCC1CC2 [Example 171] | B (EC1.5 1-25 μM) | ≥ 150
25 | O=C(Nc1ccncn1)N1c2nc(-c3cccc(C(F)(F)F)c3)ccc2N2CCC1CC2 [Example 172] | B (EC1.5 1-25 μM) | ≥ 150
26 | Cc1nc(NC(=O)N2c3nc(-c4cccc(C(F)(F)F)c4)ccc3N3CCC2CC3)sc1C [Example 173] | A (EC1.5<1 μM) | ≥ 150
27 | O=C(Nc1cncc(F)c1)N1c2nc(-c3cccc(OC(F)(F)F)c3)ccc2N2CC[C@H]1C2 [Example 174] | A (EC1.5<1 μM) | ≥ 150
28 | Cn1ncc2cc(NC(=O)N3c4nc(-c5cccc(OC(F)(F)F)c5)ccc4N4CC[C@H]3C4)ccc21 [Example 175] | A (EC1.5<1 μM) | ≥ 150
29 | COc1nccc(NC(=O)N2c3nc(-c4cccc(OC(F)(F)F)c4)ccc3N3CC[C@H]2C3)n1 [Example 176] | A (EC1.5<1 μM) | ≥ 150
30 | Cn1ccc(NC(=O)N2c3nc(-c4cccc(OC(F)(F)F)c4)ccc3N3CC[C@H]2C3)n1 [Example 177] | A (EC1.5<1 μM) | ≥ 150
31 | N#Cc1cccc(-c2ccc3c(n2)N(C(=O)Nc2cccc(-c4cnco4)c2)[C@H]2CCN3C2)c1 [Example 178] | A (EC1.5<1 μM) | ≥ 150
32 | Cc1nc(NC(=O)N2c3nc(-c4cccc(C#N)c4)ccc3N3CC[C@H]2C3)sc1C [Example 179] | A (EC1.5<1 μM) | ≥ 150
33 | N#Cc1cccc(-c2ccc3c(n2)N(C(=O)Nc2cccnc2)[C@H]2CCN3C2)c1 [Example 180] | A (EC1.5<1 μM) | ≥ 150
34 | N#Cc1cccc(-c2ccc3c(n2)N(C(=O)Nc2ccncn2)[C@H]2CCN3C2)c1 [Example 181] | A (EC1.5<1 μM) | ≥ 150
35 | N#Cc1cccc(-c2ccc3c(n2)N(C(=O)Nc2cncc(F)c2)[C@H]2CCN3C2)c1 [Example 182] | A (EC1.5<1 μM) | ≥ 150
36 | COc1nccc(NC(=O)N2c3nc(-c4cccc(C#N)c4)ccc3N3CC[C@H]2C3)n1 [Example 183] | B (EC1.5 1-25 μM) | ≥ 150
37 | Cn1ncc2cc(NC(=O)N3c4nc(-c5cccc(C#N)c5)ccc4N4CC[C@H]3C4)ccc21 [Example 184] | A (EC1.5<1 μM) | ≥ 150
38 | Cn1ccc(NC(=O)N2c3nc(-c4cccc(C#N)c4)ccc3N3CC[C@H]2C3)n1 [Example 185] | B (EC1.5 1-25 μM) | ≥ 150
39 | Cn1cc(NC(=O)N2c3nc(-c4cccc(C#N)c4)ccc3N3CC[C@H]2C3)cn1 [Example 186] | B (EC1.5 1-25 μM) | ≥ 150
40 | Cc1nc(NC(=O)N2c3nc(-c4cccc(N5CCCC5)c4)ccc3N3CC[C@H]2C3)sc1C [Example 187] | B (EC1.5 1-25 μM) | ≥ 150
41 | COc1nccc(NC(=O)N2c3nc(-c4cccc(N5CCCC5)c4)ccc3N3CC[C@H]2C3)n1 [Example 188] | B (EC1.5 1-25 μM) | ≥ 150

— patent US9765075B2, “Substituted bridged urea analogs as sirtuin modulators” (GLAXOSMITHKLINE LLC, priority 2013, dated 2017)
